Measurements reported in EP0293500A1, “3-heteroalkyl-2,4.quinzaoline-diones” (AMERICAN CYANAMID COMPANY, priority 1987, dated 1988).
Where a name gives a salt, the structure may show the parent alone.

Biological target: T1, thromboxane synthetase (Rattus norvegicus, UniProt P49430)
T1 construct: The platelets were isolated by centrifuging the PRP for 10 minutes at 1060xg; from tissue; host or cells: washed blood platelets from Okamoto-Aoki spontaneously hypertensive rats (SHR)
T1 sequence (P49430 1-533): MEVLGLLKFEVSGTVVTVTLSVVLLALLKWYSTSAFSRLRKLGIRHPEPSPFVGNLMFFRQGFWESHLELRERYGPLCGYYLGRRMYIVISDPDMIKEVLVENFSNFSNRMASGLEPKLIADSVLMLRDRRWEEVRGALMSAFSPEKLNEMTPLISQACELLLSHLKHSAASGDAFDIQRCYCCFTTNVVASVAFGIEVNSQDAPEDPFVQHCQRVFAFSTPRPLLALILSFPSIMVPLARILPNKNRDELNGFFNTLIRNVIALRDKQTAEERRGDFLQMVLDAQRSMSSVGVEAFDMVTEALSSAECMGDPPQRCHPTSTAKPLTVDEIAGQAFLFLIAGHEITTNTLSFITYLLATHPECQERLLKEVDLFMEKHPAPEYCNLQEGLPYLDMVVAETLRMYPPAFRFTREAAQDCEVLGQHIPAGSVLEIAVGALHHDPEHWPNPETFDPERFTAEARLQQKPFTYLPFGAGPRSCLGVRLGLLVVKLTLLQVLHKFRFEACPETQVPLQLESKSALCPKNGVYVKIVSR
Assay: Inhibition of thromboxane (TX) formation (TXB2 radioimmunoassay) in washed rat platelets
Type: cell-based, Okamoto-Aoki spontaneously hypertensive rats (SHR)
Details: percent inhibition of TXB2 formation; drug at 10^-4M; SHR platelet suspension, 10 minutes at 37 C
From the text: The platelet rich plasma (PRP) was separated. […] The inhibition of thromboxane (TX) formation was studied by determing the concentration of thromboxane […] (TXB2), the stable hydrolysis product of TXA2.

| inhibition at 100 µM [%] | Compound |
| --- | --- |
| 99 | O=c1c2cc(Br)ccc2ncn1CCCCc1cccnc1 [6-Bromo-3-[4-(3-pyridyl)butyl]-4(3H)-quinazolinone] |
| 93 | CC(Cn1ccnc1)Cn1nnc2ccc(Cl)cc2c1=O (centres unmarked) [6-Chloro-3-[3-(1H-imidazol-1-yl)-2-methyl-propyl]-1,2,3-benzotriazin-4(3H)-one, mono-hydrochloride] |
| 97 | O=c1c2cc(Cl)ccc2nnn1CCCCn1ccnc1 [6-Chloro-3-[4-(1H-imidazol-1-yl)butyl]-1,2,3-benzotriazin-4(3H)-one, monohydro-chloride] |
| 100 | O=c1[nH]c2ccc([N+](=O)[O-])cc2c(=O)n1CCCn1ccnc1 [Example 15, 3-[3-(1H-Imidazol-1-yl)propyl]-6-nitro-2,4(1H,3H)-quinazolinedione] |
| 99 | O=c1[nH]c2ccccc2c(=O)n1CCCCc1cccnc1 [Example 22, 3-[4-(3-Pyridinyl)butyl]-2,4(1H,3H)-quinazolinedione] |
| 52 | O=c1[nH]c2ccc(Cl)cc2c(=O)n1CCCn1ccnc1-c1ccccc1 [Example 27, 6-Chloro-3-[3-(2-phenyl-1H-imidazol-1-yl)propyl]-2,4(1H,3H)-quinazolinedione] |
| 100 | O=c1[nH]c2ccc(Cl)cc2c(=O)n1CCCCc1cccnc1 [Example 29, 6-Chloro-3-[4-(3-pyridinyl)butyl]-2,4(1H,3H)-quinazolinedione] |
| 63 | O=c1[nH]c2ccc(Cl)cc2c(=O)n1CCCCCn1ccnc1 [Example 32, 6-Chloro-3-[5-(1H-imidazol-1-yl)pentyl]-2,4(1H,3H)-quinazolinedione] |
| 93 | O=c1[nH]c2ccc(Cl)cc2c(=O)n1CCC(c1ccccc1)n1ccnc1 (centres unmarked) [Example 36, 6-Chloro-3-[3-(1H-imidazol-1-yl)-3-phenylpropyl]-2,4(1H,3H)-quinazolinedione] |
| 71 | CC(Cn1ccnc1)Cn1c(=O)[nH]c2c(Cl)cccc2c1=O (centres unmarked) [Example 45, 8-Chloro-3-[3-(1H-imidazol-1-yl)-2-methylpropyl]-2,4(1H,3H)-quinazolinedione] |
| 89 | O=c1[nH]c2c(Cl)cc(Cl)cc2c(=O)n1CCCCn1ccnc1 [Example 46, 6,8-Dichloro-3-[4-(1H-imidazol-1-yl)-butyl]-2,4(1H,3H)-quinazolinedione] |
| 67 | CC(CCn1c(=O)[nH]c2c(Cl)cc(Cl)cc2c1=O)n1ccnc1 (centres unmarked) [Example 47, 6,8-Dichloro-3-[3-(1H-imidazol-1-yl)-butyl]-2,4(1H,3H)-quinazolinedione] |
| 86 | CC(Cn1ccnc1)Cn1c(=O)[nH]c2c(Cl)cc(Cl)cc2c1=O (centres unmarked) [Example 48, 6,8-Dichloro-3-[3-(1H-imidazol-1-yl)-2-methylpropyl]-2,4(1H,3H)-quinazoline-dione] |
| 100 | O=c1[nH]c2ccc(Br)cc2c(=O)n1CCCn1ccnc1 [Example 51, 6-Bromo-3-[3-(1H-imidazol-1-yl)propyl]-2,4(1H,3H)-quinazolinedione] |
| 92 | CC(Cn1ccnc1)Cn1nnc2ccccc2c1=O (centres unmarked) [Example 78, 3-[3-(1H-Imidazol-1-yl)-2-methyl-propyl]-1,2,3-benzotriazin-4(3H)-one, monohydrochloride] |
| 90 | O=c1c2ccc(Cl)cc2nnn1CCCCn1ccnc1 [Example 80, 7-Chloro-3-[4-(1H-imidazol-1-yl)-butyl]-1,2,3-benzotriazin-4(3H)-one] |

| inhibition at 100 µM [%] | Compound |
| --- | --- |
| 93 | O=c1c2cc(Cl)cc(Cl)c2nnn1CCCCn1ccnc1 [Example 81, 6,8-Dichloro-3-[4-(1H-imidazol-1-yl)butyl]-1,2,3-benzotriazin-4(3H)-one, monohydrochloride] |
| 99 | CC(Cn1ccnc1)Cn1nnc2ccc(Br)cc2c1=O (centres unmarked) [Example 83, 6-Bromo-3-[3-(1H-imidazol-1-yl)--2-methylpropyl]-1,2,3-benzo-triazin-4(3H)-one] |
| 95 | Cc1ccc2nnn(CC(C)Cn3ccnc3)c(=O)c2c1 (centres unmarked) [Example 85, 3-[3-(1H-Imidazol-1-yl)-2-methyl-propyl]-6-methyl-1,2,3-benzo-triazin-4(3H)-one, monohydro-chloride] |
| 75 | O=c1c2ccccc2nnn1CCCCc1cccnc1 [Example 90, 3-[4-(3-Pyridin-yl)butyl]-1,2,3-benzotriazin-4(3H)-one] |
| 80 | O=c1c2cc(Cl)ccc2nnn1CCCCCCCCCCn1ccnc1 [Example 91, 6-Chloro-3-[10-(1H-imidazol-1-yl)decyl]-1,2,3-benzotriazin-4(3H)-one, fumarate] |
| 85 | Cc1cn(CCCn2nnc3ccc(Cl)cc3c2=O)cn1 [Example 92, 6-Chloro-3-[3-(4-methyl-1H-imida-zol-1-yl)propyl]-1,2,3-benzotria-zin-4(3H)-one] |
| 85 | O=c1c2cc(Cl)ccc2nnn1CCCCc1cccnc1 [Example 93, 6-Chloro-3-[4-(3-pyridinyl)butyl]-1,2,3-benzotria-zin-4(3H)-one] |
| 86 | O=c1c2cccc(C(F)(F)F)c2nnn1CCCCn1ccnc1 [Example 94, 3-[4-(1H-Imida-zol-1-yl)butyl]-8-trifluoro-methyl-1,2,3-benzotriazin-4(3H)-one] |
| 87 | O=c1c2cccc(C(F)(F)F)c2nnn1CCCCCn1ccnc1 [Example 95, 3-[5-(1H-Imida-zol-1-yl)pentyl]-8-trifluoro-methyl-1,2,3-benzotriazin-4(3H)-one] |
| 74 | Cc1cn(CCCn2cnc3ccccc3c2=O)cn1 [Example 133, 3-[3-(4-Methyl-1H-imidazol-1-yl)propyl]-4(3H)-quinazolinone] |
| 99 | O=c1c2ccccc2ncn1CCCCc1cccnc1 [Example 135, 3-[4-(3-Pyridyl)butyl]-4(3H)-quina-zolinone, dihydrochloride] |
| 86 | O=c1c2ccccc2ncn1CCCCCCn1ccnc1 [Example 136, 3-[6-(1H-Imidazol-1-yl)hexyl]-4(3H)-quinazolinone, dihydrochloride] |
| 94 | CC(Cn1ccnc1)Cn1cnc2ccc(Cl)cc2c1=O (centres unmarked) [Example 141, 6-Chloro-3-[3-(1H-imidazol-1-yl)-2-methylpropyl]-4(3H)quinazolinone] |
| 100 | O=c1c2cc(Cl)ccc2ncn1CCCCc1cccnc1 [Example 142, 6-Chloro-3-[4-(3-pyridyl)butyl]-4(3H)-quinazolinone] |
| 96 | O=c1c2cc(Cl)ccc2ncn1CCCn1ccnc1-c1ccccc1 [Example 144, 6-Chloro-3-[3-(2-phenyl-1H-imidazol-1-yl)propyl]-4(3H)-quinazolinone, dihydro-chloride] |
| 79 | O=c1c2cc(Cl)ccc2ncn1CCC(c1ccccc1)n1ccnc1 (centres unmarked) [Example 148, 6-Chloro-3-[3-(1H-imidazol-1-yl)-3-phenylpropyl]-4-(3H)-quinazolinone] |
